Assay results taken from the supplement of paper PMC10307832.

Each cell line was assayed with CC1=C(C(=NN1)C)CC2=C(C3=C(S2)N(C(=O)N(C3=O)C)CC(C)C)C(=O)N4C[C@@H](CO4)O + CC1(C)CCC(c2ccc(Cl)cc2)=C(CN2CCN(c3ccc(C(=O)NS(=O)(=O)c4ccc(N[C@H](CCN5CCOCC5)CSc5ccccc5)c(S(=O)(=O)C(F)(F)F)c4)cc3)CC2)C1 [Navitoclax] (partner 0.5 µM) (assay: relative viability (nuclei count vs DMSO), 5 days (fraction); higher = more cells survive). Settings: first compound 0.0025 µM.
How it was run: (§1)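 Dosing by pin tool came one day after lung cancer cell lines were seeded in 1536-well plates, using either one drug or a fixed anchor-drug dose plus five library-drug doses (not always all listed) in √10 steps. After 5 days, nuclei were counted on 4× images. Relative viability is treated-well nuclei count divided by vehicle-well nuclei count, and values are medians of duplicate plates.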

Cell Line | relative viability
NCI-H2405 | 0.795
HOP-62 | 1.15
LU99A | 0.74
BEN | 0.0618
HARA | 1.26
HCC-78 | 0.834
NCI-H322M | 1.22
LCLC-97TM1 | 0.394
NCI-H2009 | 1.23
A-427 | 1.01
NCI-H441 | 0.473
NCI-H1734 | 0.843
NCI-H460 | 1.19
NCI-H2347 | 0.86
SK-LU-1 | 0.717
NCI-H1395 | 1.09

Cell Line | relative viability
201T | 1.22
NCI-H1915 | 0.81
HCC-827 | 0.983
LXF-289 | 0.885
NCI-H23 | 0.908
NCI-H647 | 1.15
CAL-12T | 1.27
NCI-H1651 | 1.11
EPLC-272H | 1.17
NCI-H2228 | 0.955
NCI-H1355 | 0.955
NCI-H3122 | 1.02
NCI-H1437 | 1.16
NCI-H1755 | 1.05
NCI-H2023 | 0.981

Same assay, conditions: first compound 0.007906 µM

Cell Line | relative viability
NCI-H2405 | 0.652
HOP-62 | 1.03
LU99A | 0.887
BEN | 0.0913
HARA | 1.2
HCC-78 | 0.743
NCI-H322M | 1.18
LCLC-97TM1 | 0.613
NCI-H2009 | 1.21
A-427 | 0.948
NCI-H441 | 0.577
NCI-H1734 | 1.1
NCI-H460 | 1.26
NCI-H2347 | 0.691
SK-LU-1 | 0.662
NCI-H1395 | 0.931

Cell Line | relative viability
201T | 1.22
NCI-H1915 | 0.789
HCC-827 | 1.08
LXF-289 | 0.904
NCI-H23 | 0.904
NCI-H647 | 1.43
CAL-12T | 1.39
NCI-H1651 | 1.06
EPLC-272H | 1.26
NCI-H2228 | 0.961
NCI-H1355 | 0.96
NCI-H3122 | 1.04
NCI-H1437 | 1.2
NCI-H1755 | 1.03
NCI-H2023 | 0.946

Same assay, conditions: first compound 0.025 µM

Cell Line | relative viability
HOP-62 | 0.857
LU99A | 0.76
BEN | 0.0867
HARA | 1.07
HCC-78 | 0.868
NCI-H322M | 1.18
LCLC-97TM1 | 0.404
NCI-H2009 | 1.11
A-427 | 0.889
NCI-H441 | 0.686
NCI-H1734 | 0.772
NCI-H460 | 0.994
NCI-H2347 | 0.828
SK-LU-1 | 0.528
NCI-H1395 | 1.01
201T | 1.17
NCI-H1915 | 0.763
HCC-827 | 1.03
LXF-289 | 0.94
NCI-H23 | 0.807
NCI-H647 | 1.01
CAL-12T | 1.03
NCI-H1651 | 1.01
EPLC-272H | 1.07
NCI-H2228 | 1.15
NCI-H1355 | 1.02
NCI-H3122 | 0.996
NCI-H1437 | 1.08
NCI-H1755 | 1
NCI-H2023 | 0.957

Same assay, conditions: first compound 0.07906 µM

Cell Line | relative viability
NCI-H2405 | 0.983
HOP-62 | 1.08
LU99A | 0.845
BEN | 0.0968
HARA | 1.1
HCC-78 | 0.716
NCI-H322M | 1.29
LCLC-97TM1 | 0.373
NCI-H2009 | 1.18
A-427 | 0.886
NCI-H441 | 0.763
NCI-H1734 | 0.931
NCI-H460 | 1.13
NCI-H2347 | 0.69
SK-LU-1 | 0.744
NCI-H1395 | 0.859

Cell Line | relative viability
201T | 1.14
NCI-H1915 | 0.79
HCC-827 | 1.04
LXF-289 | 0.935
NCI-H23 | 1.02
NCI-H647 | 1.32
CAL-12T | 1.37
NCI-H1651 | 0.912
EPLC-272H | 1.08
NCI-H2228 | 1
NCI-H1355 | 0.853
NCI-H3122 | 1.01
NCI-H1437 | 1.1
NCI-H1755 | 1
NCI-H2023 | 0.979

Same assay, conditions: first compound 0.25 µM

Cell Line | relative viability
NCI-H2405 | 0.864
HOP-62 | 0.857
LU99A | 0.458
BEN | 0.0771
HARA | 1.15
HCC-78 | 0.768
NCI-H322M | 1.06
LCLC-97TM1 | 0.467
NCI-H2009 | 1.22
A-427 | 1.16
NCI-H441 | 0.678
NCI-H1734 | 1.02
NCI-H460 | 1.34
NCI-H2347 | 0.771
SK-LU-1 | 0.545
NCI-H1395 | 0.886

Cell Line | relative viability
201T | 1.21
NCI-H1915 | 0.832
HCC-827 | 1.04
LXF-289 | 1
NCI-H23 | 0.901
NCI-H647 | 1.42
CAL-12T | 1.33
NCI-H1651 | 1.05
EPLC-272H | 1.28
NCI-H2228 | 1.14
NCI-H1355 | 0.894
NCI-H3122 | 0.995
NCI-H1437 | 1.09
NCI-H1755 | 1.06
NCI-H2023 | 0.986

The cell lines below were run with Cc1ccccc1C(C(=O)NC1CCCCC1)N(C(=O)Cn1ccnc1C)c1cccc(F)c1 [IDH-C35] + Nc1nc2[nH]cc(CCc3ccc(C(=O)N[C@@H](CCC(=O)O)C(=O)O)cc3)c2c(=O)[nH]1 [Pemetrexed] (partner 0.2 µM) in the same assay as above. Settings: first compound 0.08 µM.
How it was run: as §1

Cell Line | relative viability
NCI-H2405 | 1.05
HOP-62 | 0.302
LU99A | 0.191
BEN | 0.633
HARA | 0.278
HCC-78 | 0.918
NCI-H322M | 0.622
LCLC-97TM1 | 0.216
NCI-H2009 | 1.02
A-427 | 0.952
NCI-H441 | 0.256
NCI-H1734 | 0.432
NCI-H460 | 0.0621
NCI-H2347 | 0.424
SK-LU-1 | 1.06
NCI-H1395 | 0.869

Cell Line | relative viability
201T | 0.329
NCI-H1915 | 0.555
HCC-827 | 0.279
LXF-289 | 1.02
NCI-H23 | 0.642
NCI-H647 | 0.186
CAL-12T | 1.23
NCI-H1651 | 0.53
EPLC-272H | 0.276
NCI-H2228 | 0.307
NCI-H1355 | 1.11
NCI-H3122 | 0.203
NCI-H1437 | 0.35
NCI-H1755 | 0.455
NCI-H2023 | 0.262

Same assay, conditions: first compound 0.253 µM

Cell Line | relative viability
NCI-H2405 | 1.07
HOP-62 | 0.309
LU99A | 0.216
BEN | 0.929
HARA | 0.239
HCC-78 | 0.918
NCI-H322M | 0.554
LCLC-97TM1 | 0.173
NCI-H2009 | 0.968
A-427 | 0.981
NCI-H441 | 0.272
NCI-H1734 | 0.423
NCI-H460 | 0.0643
NCI-H2347 | 0.418
SK-LU-1 | 0.983
NCI-H1395 | 0.882

Cell Line | relative viability
201T | 0.351
NCI-H1915 | 0.475
HCC-827 | 0.266
LXF-289 | 0.857
NCI-H23 | 0.848
NCI-H647 | 0.161
CAL-12T | 1.14
NCI-H1651 | 0.615
EPLC-272H | 0.388
NCI-H2228 | 0.336
NCI-H1355 | 1.02
NCI-H3122 | 0.182
NCI-H1437 | 0.291
NCI-H1755 | 0.748
NCI-H2023 | 0.246

Same assay, conditions: first compound 0.8 µM

Cell Line | relative viability
NCI-H2405 | 0.93
HOP-62 | 0.255
LU99A | 0.173
BEN | 0.73
HARA | 0.326
HCC-78 | 0.897
NCI-H322M | 0.644
LCLC-97TM1 | 0.201
NCI-H2009 | 0.936
A-427 | 0.899
NCI-H441 | 0.269
NCI-H1734 | 0.443
NCI-H460 | 0.0648
NCI-H2347 | 0.452
SK-LU-1 | 1.03
NCI-H1395 | 0.866

Cell Line | relative viability
201T | 0.367
NCI-H1915 | 0.508
HCC-827 | 0.269
LXF-289 | 0.859
NCI-H23 | 0.625
NCI-H647 | 0.175
CAL-12T | 1.37
NCI-H1651 | 0.571
EPLC-272H | 0.397
NCI-H2228 | 0.332
NCI-H1355 | 0.987
NCI-H3122 | 0.203
NCI-H1437 | 0.362
NCI-H1755 | 0.458
NCI-H2023 | 0.245

Same assay, conditions: first compound 2.53 µM

Cell Line | relative viability
NCI-H2405 | 1.24
HOP-62 | 0.338
LU99A | 0.187
BEN | 0.762
HARA | 0.256
HCC-78 | 0.912
NCI-H322M | 0.578
NCI-H2009 | 1.01
A-427 | 1.02
NCI-H441 | 0.292
NCI-H1734 | 0.413
NCI-H460 | 0.0655
NCI-H2347 | 0.417
SK-LU-1 | 1.05
NCI-H1395 | 0.989
201T | 0.343
NCI-H1915 | 0.54
HCC-827 | 0.248
LXF-289 | 0.894
NCI-H23 | 0.773
NCI-H647 | 0.171
CAL-12T | 1.15
NCI-H1651 | 0.607
EPLC-272H | 0.34
NCI-H2228 | 0.328
NCI-H1355 | 1
NCI-H3122 | 0.207
NCI-H1437 | 0.299
NCI-H1755 | 0.411
NCI-H2023 | 0.241

Same assay, conditions: first compound 8 µM

Cell Line | relative viability
NCI-H2405 | 1.08
HOP-62 | 0.346
LU99A | 0.191
BEN | 0.857
HARA | 0.254
HCC-78 | 0.943
NCI-H322M | 0.608
LCLC-97TM1 | 0.145
NCI-H2009 | 0.936
A-427 | 1.04
NCI-H441 | 0.244
NCI-H1734 | 0.409
NCI-H460 | 0.0759
NCI-H2347 | 0.43
SK-LU-1 | 0.887
NCI-H1395 | 0.925
201T | 0.321
NCI-H1915 | 0.461
HCC-827 | 0.238
LXF-289 | 0.797
NCI-H23 | 0.652
NCI-H647 | 0.167
CAL-12T | 1.12
NCI-H1651 | 0.641
EPLC-272H | 0.394
NCI-H2228 | 0.3
NCI-H1355 | 1
NCI-H3122 | 0.2
NCI-H1437 | 0.296
